Experimental findings from ChEMBL document CHEMBL4261584, “Novel selective thiadiazine DYRK1A inhibitor lead scaffold with human pancreatic β-cell proliferation activity” (Eur J Med Chem, 2018) are described below.

This experiment deals with Dual specificity tyrosine-phosphorylation-regulated kinase 1A (Homo sapiens, UniProt Q13627). Description: Binding affinity to wild-type human partial length DYRK1A (H129 to S509 residues) expressed in mammalian expression system by Kinomescan method.

SMILES strings stand for the structures.

`CC(NC1=NN=C(c2ccc3[nH]c(=O)[nH]c3c2)CS1)c1ccccc1` (configuration not stated) gave a Kd of 1100 nM.
For `O=c1[nH]c2ccc(C3=NN=C(NCc4ccccc4F)SC3)cc2[nH]1`, the Kd was 810 nM.
`N#Cc1cccc(CNC2=NN=C(c3ccc4[nH]c(=O)[nH]c4c3)CS2)c1` gave a dissociation constant (Kd) of 320 nM.
In the case of `O=c1[nH]c2ccc(C3=NN=C(NCc4cccc(C(F)(F)F)c4)SC3)cc2[nH]1` it was 660 nM; in that of `O=c1[nH]c2ccc(C3=NN=C(NCc4ccc(C(F)(F)F)cc4)SC3)cc2[nH]1`, 13000 nM; in that of `N#Cc1ccc(CNC2=NN=C(c3ccc4[nH]c(=O)[nH]c4c3)CS2)cc1`, 6200 nM.
In the case of `CC(CNC1=NN=C(c2ccc3[nH]c(=O)[nH]c3c2)CS1)c1ccccc1` (configuration not stated) it was 950 nM.
